Measurements as given in patent publication US20090274773A1, “ANTIPROLIFERATIVE COMBINATION COMPRISING CYC-682 AND A CYTOTOXIC AGENT” (Cyclacel Limited, priority 2005, published 2009).

How the values were obtained:
Type in all cases: cell-based, human
COLO205 = assay: MTT growth inhibition assay, single agent; settings: Homo sapiens, COLO 205, 24 hours exposure, read-out: Antiproliferative effects IC50s (MTT assay)
Procedure: (§1) All cell lines were obtained from the ATCC (Rockville, Md.). Cells were grown as monolayers in RPMI medium supplemented with 10% fetal calf serum (Invitrogen, Cergy-Pontoise, France), 2 mM glutamine, 100 units/ml penicillin and 100 μg/ml streptomycin. All cells were split twice a week using trypsin/EDTA (0.25% and 0.02%, respectively; Invitrogen, Cergy-Pontoise, France) and seeded at a concentration of 2.5×10^4 cells/ml. All cell lines were tested regularly for Mycoplasma contamination by PCR using a Stratagene kit (La Jolla, Calif.).
(§2) The MTT assay was carried out as described previously (Hansen M B, Nielsen S E, Berg K. Re-examination and further development of a precise and rapid dye method for measuring cell growth/cell kill. J Immunol Methods. 1989 May 12; 119(2):203-10). In brief, cells were seeded in 96-well tissue culture plates at a density of 2×10^3 cells/well. Cell viability was determined after a 120-hour incubation, by the calorimetric conversion of yellow, water-soluble tetrazolium MTT (3-[4,5-dimethylthiazol-2-yl]-2,5-diphenyltetrazolium bromide; Sigma, Saint-Quentin Fallavier, France), into purple, water-insoluble formazan. This reaction is catalyzed by mitochondrial dehydrogenases and is used to estimate the relative number of viable cells (Mosmann, T, Rapid calorimetric assay for cellular growth and survival: application to proliferation and cytotoxicity assays. J Immunol Methods. 1983 Dec. 16; 65 (1-2):55-63). Cells were incubated with 0.4 mg/ml MTT for 4 hours at 37° C. After incubation, the supernatant was discarded, the cell pellet was resuspended in 0.1 ml of DMSO and the absorbance was measured at 560 nm using a microplate reader (Dynatech, Michigan). Wells with untreated cells or with drug-containing medium without cells were used as positive and negative controls, respectively. Growth inhibition curves were plotted as a percentage of untreated control cells.
(§3) The cells were seeded at 2×10^3 cells/well in 96-well plates and treated 24 hours later with increasing concentrations of CYC682. After incubation times of 1 hour, 24 hours or 48 hours, the cells were washed and post-incubated in drug-free medium for 72 hours. Growth inhibition was then determined by the MTT assay.

MDA-MB-435 = assay: MTT growth inhibition assay, single agent; settings: Homo sapiens, 24 hours exposure, read-out: Antiproliferative effects IC50s (MTT assay)
Procedure: as §1, §2, §3

COLO205 cancer cell line = assay: CYC682 drug-combination study (MTT, Chou and Talalay combination index, isobolograms)
Procedure: (§4) For simultaneous drug exposure, cells were seeded at 2×10^3 cells/well in 96-well plates and treated 24 hours later with increasing concentrations of CYC682 alone or with various concentrations of another drug corresponding to the IC20, IC40 or IC60 values. After approximately four doubling times (120 hours), the growth inhibitory effect was measured by the MTT assay.
(§5) Cells were seeded at 2×10^3 cells/well in 96-well plates and allowed to grow for 24 hour. Cells were then exposed to various concentrations of the first drug for 1 hour/24 hours/48 hours, the drug was removed, the cells were washed and the second drug was added. After additional drug exposure, the second drug was removed, the cells were washed and incubated in drug-free medium for 72 hours. Growth inhibition was then determined by the MTT assay.
(§6) Effects of drug combinations were evaluated using the Chou and Talalay method which is based on the median-effect principle (Chou T C, Talalay P. Quantitative analysis of dose-effect relationships: the combined effects of multiple drugs or enzyme inhibitors. Adv Enzyme Regul. 1984; 22:27-55). […] On the basis of the slope of the curve for each drug in a combination, it can be determined whether the drugs have mutually nonexclusive effects (e.g., independent or interactive modes of action).
(§7) The combination index (CI) is then determined by the equation:
(§8) CI=[(C)1/(Cx)1]+[(C)2/(Cx)2]+[α(C)1(C)2/(Cx)1(Cx)2],
(§9) where (Cx)1 is the concentration of drug 1 required to produce an x percent effect of that drug alone, and (C)1, the concentration of drug 1 required to produce the same x percent effect in combination with (C)2. If the mode of action of the drugs is mutually exclusive or nonexclusive, then α is 0 or 1, respectively. CI values will be calculated with this equation using different values of fa (i.e., for different degrees of cell growth inhibition). CI values of <1 indicate synergy, the value of 1 indicates additive effects, and values >1 indicate antagonism. Data were analyzed on an IBM-PC computer using concentration-effect analysis for microcomputer software (Biosoft, Cambridge, UK). For statistical analysis and graphs we will use Instat and Prism software (GraphPad, San Diego, USA). The dose-effect relationships for the drugs tested, alone or in paired combinations, were subjected to median-effect plot analysis to determine their relative potency (IC50), shape (m), and conformity (r) in each selected cell line. As stated above, the IC50 and m values were respectively used to calculate synergism and antagonism on the basis of the CI equation. Results were expressed as the mean±standard deviation of at least 3 experiments performed in duplicate. In each experiment, cells were exposed to the paired combinations for 48 hours as described above. Means and standard deviations were compared using Student's t-test (two-sided p value).
(§10) The effect of sequential and simultaneous exposure (FIG. 2) to CYC682 with oxaliplatin, doxorubicin, docetaxel and gemcitabine was studied in two sensitive colon cancer cell lines—COLO205 and HCT116 using combination indices that represent an affected fraction for the concentration of drugs corresponding to IC50 as previously described by Chou and Talalay.

HCT116 cancer cell line = assay: as above
Procedure: as §4, §5, §6, §7, §8, §9, §10

NSCLC cell line H1299 = assay: CNDAC combinations (alamar blue, Calcusyn Combination Index); settings: for Interaction with CNDAC (in words), summary of Table 3: combination with CNDAC, regime not specified; for Combination Index at ED50, Concomitant / Combination Index at ED75, Concomitant / Combination Index at ED90, Concomitant: simultaneous treatment 72 h
Procedure: Experiments in the NSCLC cell lines H1299 or RERF-LC-MA were performed in 96-well plates, with cells seeded at a density of 3,000/well, in DMEM containing 10% (v/v) FCS. Stock solutions of all drugs were made up in dimethylsulfoxide (DMSO), with the exception of gemcitabine, which was dissolved in 0.9% (w/v) sterile saline solution.
For experimental assessment of potential synergistic interactions, the concomitant treatment regime involved simultaneous treatment of cells with CNDAC and the other agent under investigation for 72 h, alongside suitable controls of cells treated with the individual compounds alone for 72 hr. In the sequential treatment regimes, one drug was added to the cells 2 h after plating, and left for 24 h. Media was then aspirated, replaced with fresh media containing the second drug and incubated for 72 h. The two individual treatment controls for the sequential treatment regime involved substituting one of the drug treatments with drug-free media. […] Drug interactions were analysed using the Calcusyn software package (BioSoft, Cambridge, U.K.) described below.

[1] = named agent in combination with CNDAC, H1299
[2] = named agent in combination with CNDAC, H1299, CNDAC 24 h then other agent 72 h
[3] = named agent in combination with CNDAC, H1299, named agent 24 h then CNDAC 72 h

Row | Structure (SMILES) | IC50 (COLO205) [nM] | IC50 (MDA-MB-435) [nM] | Interaction with CYC682 (isobologram) (COLO205 cancer cell line; COLO205, named agent given prior to CYC682) | Interaction with CYC682 (isobologram) (HCT116 cancer cell line; HCT116, named agent given prior to CYC682) | Interaction with CNDAC (in words), summary of Table 3 (NSCLC cell line H1299) | Combination Index at ED50, Concomitant (NSCLC cell line H1299; [1]) | Combination Index at ED75, Concomitant (NSCLC cell line H1299; [1]) | Combination Index at ED90, Concomitant (NSCLC cell line H1299; [1]) | Interaction with CYC682 (isobologram) (COLO205 cancer cell line; COLO205 (FIG. 5), sequential exposure, at high concentrations) | Interaction with CYC682 (isobologram) (HCT116 cancer cell line; HCT116 (FIG. 5), sequential exposure, at high concentrations) | Interaction with CNDAC at ED50 (in words) (NSCLC cell line H1299; H1299, concomitant treatment) | Interaction with CNDAC at ED50 (in words) (NSCLC cell line H1299; H1299, pre-treatment with named agent) | Combination Index at ED75, CNDAC pretreatment (NSCLC cell line H1299; [2]) | Combination Index at ED90, CNDAC pretreatment (NSCLC cell line H1299; [2]) | Combination Index at ED50, CNDAC pretreatment (NSCLC cell line H1299; named agent in combination with CNDAC, H1299, CNDAC 24 h then other agent 72 h, C.I. <1 synergistic, 1 additive, >1 antagonistic) | Combination Index at ED50, Other (named agent) pretreatment (NSCLC cell line H1299; [3]) | Combination Index at ED75, Other (named agent) pretreatment (NSCLC cell line H1299; [3]) | Combination Index at ED90, Other (named agent) pretreatment (NSCLC cell line H1299; [3])
1 | CC(=O)O[C@@]12CO[C@@H]1C[C@H](O)[C@@]1(C)C(=O)[C@H](O)C3=C(C)[C@@H](OC(=O)[C@H](O)[C@@H](NC(=O)OC(C)(C)C)c4ccccc4)C[C@@](O)([C@@H](OC(=O)c4ccccc4)[C@H]21)C3(C)C [Docetaxel] | 6 ± 1 | 10 ± 2 | synergistic effect | synergistic effect | synergistic drug interactions | 0.93 | 1.13 | 2.01 |  |  |  |  |  |  |  |  |  | 
2 | COc1cccc2c1C(=O)c1c(O)c3c(c(O)c1C2=O)C[C@@](O)(C(=O)CO)C[C@@H]3O[C@H]1C[C@H](N)[C@H](O)[C@H](C)O1 [Doxorubicin] | 1500 ± 500 | 2000 ± 400 |  |  | synergistic drug interactions | 0.63 | 1.14 | 2.75 | synergistic | synergistic | synergy | synergy | 1.24 | 2.23 | 0.95 | 0.64 | 0.83 | 1.63
